Three molecules from ChEMBL document CHEMBL2429821, “A Casein kinase 1/Checkpoint kinase 1 pyrazolo-pyridine protein kinase inhibitor as novel activator of the p53 pathway” (Bioorg Med Chem Lett, 2013) can be followed below.

Assay [1] deals with T1, Inhibitor of nuclear factor kappa-B kinase subunit epsilon (Homo sapiens) (UniProt Q14164).
T1 sequence (whole entry): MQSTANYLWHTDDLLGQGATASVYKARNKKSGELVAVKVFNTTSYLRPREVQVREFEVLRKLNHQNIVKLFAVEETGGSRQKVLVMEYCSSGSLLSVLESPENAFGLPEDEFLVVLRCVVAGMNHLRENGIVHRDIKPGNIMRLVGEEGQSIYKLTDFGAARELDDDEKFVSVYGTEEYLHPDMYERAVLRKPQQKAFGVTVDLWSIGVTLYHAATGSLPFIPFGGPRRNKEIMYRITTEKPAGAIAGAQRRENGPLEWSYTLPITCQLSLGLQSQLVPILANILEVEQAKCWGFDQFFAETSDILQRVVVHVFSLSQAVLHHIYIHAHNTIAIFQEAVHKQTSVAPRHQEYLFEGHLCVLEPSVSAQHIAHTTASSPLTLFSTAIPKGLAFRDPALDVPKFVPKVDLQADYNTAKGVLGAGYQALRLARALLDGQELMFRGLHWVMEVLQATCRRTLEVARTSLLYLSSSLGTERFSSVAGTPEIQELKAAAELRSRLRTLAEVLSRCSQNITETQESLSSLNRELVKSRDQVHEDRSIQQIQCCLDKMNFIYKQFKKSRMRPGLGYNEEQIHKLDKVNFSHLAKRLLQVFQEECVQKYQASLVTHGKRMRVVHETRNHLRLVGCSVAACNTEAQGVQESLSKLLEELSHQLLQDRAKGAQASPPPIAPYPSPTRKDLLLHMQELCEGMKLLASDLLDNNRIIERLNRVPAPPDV
The assay can be described thus: Inhibition of human IKKepsilon assessed as residual activity at 1 uM relative to control.

Assay [2] has as its target Casein kinase I isoform delta (Rattus norvegicus) (UniProt Q06486). In words: Inhibition of rat CK1delta assessed as residual activity at 10 uM relative to control.
The target of assay [3] is Calcium/calmodulin-dependent protein kinase type 1 (Homo sapiens) (UniProt Q14012). The assay can be described thus: Inhibition of human CAMK1 assessed as residual activity at 1 uM relative to control.
In assay [4] the target is MAP/microtubule affinity-regulating kinase 3 (Homo sapiens) (UniProt P27448). In words: Inhibition of human MARK3 assessed as residual activity at 10 uM relative to control.
Sequence of MAP/microtubule affinity-regulating kinase 3 (Homo sapiens) (P27448 whole entry, looked up): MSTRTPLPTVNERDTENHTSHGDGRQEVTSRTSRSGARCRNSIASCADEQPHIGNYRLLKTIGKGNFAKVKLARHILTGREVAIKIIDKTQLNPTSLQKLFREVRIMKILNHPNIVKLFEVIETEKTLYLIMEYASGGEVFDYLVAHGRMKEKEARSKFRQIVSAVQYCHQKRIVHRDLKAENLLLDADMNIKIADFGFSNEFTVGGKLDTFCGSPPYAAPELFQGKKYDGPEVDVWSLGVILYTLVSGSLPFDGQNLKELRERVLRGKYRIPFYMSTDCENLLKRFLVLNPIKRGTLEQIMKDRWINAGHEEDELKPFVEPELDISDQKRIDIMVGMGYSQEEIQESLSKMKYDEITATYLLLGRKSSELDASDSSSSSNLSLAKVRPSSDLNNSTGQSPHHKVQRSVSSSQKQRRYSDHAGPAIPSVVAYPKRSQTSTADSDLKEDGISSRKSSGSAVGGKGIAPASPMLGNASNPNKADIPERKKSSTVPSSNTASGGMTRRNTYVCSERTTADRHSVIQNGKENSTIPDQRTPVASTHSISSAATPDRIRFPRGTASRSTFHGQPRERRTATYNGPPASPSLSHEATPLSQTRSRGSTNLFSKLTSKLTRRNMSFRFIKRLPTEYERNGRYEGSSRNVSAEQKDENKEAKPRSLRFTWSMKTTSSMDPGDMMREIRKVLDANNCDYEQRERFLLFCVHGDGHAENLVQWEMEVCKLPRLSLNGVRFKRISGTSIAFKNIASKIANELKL
For assay [5], the target named is RAC-alpha serine/threonine-protein kinase (Homo sapiens) (UniProt P31749). The assay can be described thus: Inhibition of human PKBalpha assessed as residual activity at 10 uM relative to control.
Sequence of RAC-alpha serine/threonine-protein kinase (Homo sapiens) (P31749 whole entry): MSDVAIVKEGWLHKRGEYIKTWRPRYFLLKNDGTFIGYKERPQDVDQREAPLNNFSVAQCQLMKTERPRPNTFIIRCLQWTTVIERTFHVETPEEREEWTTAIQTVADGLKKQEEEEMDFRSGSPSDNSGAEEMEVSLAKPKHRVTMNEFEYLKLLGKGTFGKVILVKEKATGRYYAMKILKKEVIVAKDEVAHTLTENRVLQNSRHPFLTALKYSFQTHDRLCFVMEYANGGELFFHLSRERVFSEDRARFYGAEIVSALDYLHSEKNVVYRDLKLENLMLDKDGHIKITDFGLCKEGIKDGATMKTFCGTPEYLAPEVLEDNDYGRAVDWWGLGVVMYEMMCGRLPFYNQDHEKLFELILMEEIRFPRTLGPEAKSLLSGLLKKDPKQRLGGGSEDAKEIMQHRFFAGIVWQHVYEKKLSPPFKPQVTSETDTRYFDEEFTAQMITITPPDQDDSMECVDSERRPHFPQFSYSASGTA
Assay [6] addresses Serine/threonine-protein kinase Chk2 (Homo sapiens) (UniProt O96017). In words: Inhibition of human CHK2 assessed as residual activity at 10 uM relative to control.
In assay [7] the target is T2, Inhibitor of nuclear factor kappa-B kinase subunit beta (Homo sapiens) (UniProt O14920).
T2 sequence (whole entry): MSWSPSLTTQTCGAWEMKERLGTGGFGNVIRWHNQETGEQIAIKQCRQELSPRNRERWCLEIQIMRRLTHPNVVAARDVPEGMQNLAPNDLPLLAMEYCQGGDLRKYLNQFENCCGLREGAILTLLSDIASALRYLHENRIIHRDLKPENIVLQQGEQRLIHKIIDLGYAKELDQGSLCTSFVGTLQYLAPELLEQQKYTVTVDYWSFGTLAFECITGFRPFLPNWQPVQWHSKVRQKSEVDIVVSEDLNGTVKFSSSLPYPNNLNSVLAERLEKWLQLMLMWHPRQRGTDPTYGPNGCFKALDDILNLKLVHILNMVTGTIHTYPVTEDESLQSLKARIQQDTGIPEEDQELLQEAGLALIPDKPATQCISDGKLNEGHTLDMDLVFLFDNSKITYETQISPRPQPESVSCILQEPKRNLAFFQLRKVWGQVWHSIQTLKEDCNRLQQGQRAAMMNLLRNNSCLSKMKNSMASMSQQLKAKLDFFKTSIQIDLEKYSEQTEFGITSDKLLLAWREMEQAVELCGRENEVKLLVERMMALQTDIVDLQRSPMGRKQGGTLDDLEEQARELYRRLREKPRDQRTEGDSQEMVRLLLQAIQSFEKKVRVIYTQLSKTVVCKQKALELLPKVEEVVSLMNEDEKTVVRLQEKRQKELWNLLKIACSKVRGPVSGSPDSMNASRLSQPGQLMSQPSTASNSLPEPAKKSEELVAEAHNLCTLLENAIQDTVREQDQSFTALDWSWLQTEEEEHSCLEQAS
In words: Inhibition of human IKKbeta assessed as residual activity at 1 uM relative to control.

The target in assay [8] is Serine/threonine-protein kinase Chk2 (Homo sapiens) (UniProt O96017). The assay can be described thus: Inhibition of human CHK2 assessed as residual activity at 1 uM relative to control.
The species entered for the next assay is Oryctolagus cuniculus. The assay can be described thus: Inhibition of rabbit MKK1 assessed as residual activity at 1 uM relative to control.
For assay [9], the target named is RAC-alpha serine/threonine-protein kinase (Homo sapiens) (UniProt P31749). The assay can be described thus: Inhibition of human PKBalpha assessed as residual activity at 1 uM relative to control.
Assay [10] has as its target Ribosomal protein S6 kinase alpha-5 (Homo sapiens) (UniProt O75582). In words: Inhibition of human MSK1 assessed as residual activity at 10 uM relative to control.
In assay [11] the target is Protein kinase C alpha type (Homo sapiens) (UniProt P17252). The assay can be described thus: Inhibition of human PKCalpha assessed as residual activity at 10 uM relative to control.
Assay [12] has as its target Mitogen-activated protein kinase 9 (Homo sapiens) (UniProt P45984). The assay can be described thus: Inhibition of human JNK2 assessed as residual activity at 10 uM relative to control.
Assay [13] addresses Serine/threonine-protein kinase PAK 4 (Homo sapiens) (UniProt O96013). In words: Inhibition of human PAK4 assessed as residual activity at 1 uM relative to control.
Assay [14] concerns the target T1, Inhibitor of nuclear factor kappa-B kinase subunit epsilon (Homo sapiens). In words: Inhibition of human IKKepsilon assessed as residual activity at 10 uM relative to control.
Assay [15] addresses Ribosomal protein S6 kinase beta-1 (Homo sapiens) (UniProt P23443). The assay can be described thus: Inhibition of human S6K1 assessed as residual activity at 1 uM relative to control.
Assay [16] deals with Casein kinase II (Homo sapiens) (UniProt P67870+P68400+P19784). In words: Inhibition of human CK2 assessed as residual activity at 10 uM relative to control. Format: protein-complex assay.
In assay [17] the target is Tyrosine-protein kinase BTK (Homo sapiens) (UniProt Q06187). The assay can be described thus: Inhibition of human BTK assessed as residual activity at 1 uM relative to control.
In assay [18] the target is RAC-beta serine/threonine-protein kinase (Homo sapiens) (UniProt P31751). The assay can be described thus: Inhibition of human PKBbeta assessed as residual activity at 10 uM relative to control.
Sequence of RAC-beta serine/threonine-protein kinase (Homo sapiens) (P31751 whole entry): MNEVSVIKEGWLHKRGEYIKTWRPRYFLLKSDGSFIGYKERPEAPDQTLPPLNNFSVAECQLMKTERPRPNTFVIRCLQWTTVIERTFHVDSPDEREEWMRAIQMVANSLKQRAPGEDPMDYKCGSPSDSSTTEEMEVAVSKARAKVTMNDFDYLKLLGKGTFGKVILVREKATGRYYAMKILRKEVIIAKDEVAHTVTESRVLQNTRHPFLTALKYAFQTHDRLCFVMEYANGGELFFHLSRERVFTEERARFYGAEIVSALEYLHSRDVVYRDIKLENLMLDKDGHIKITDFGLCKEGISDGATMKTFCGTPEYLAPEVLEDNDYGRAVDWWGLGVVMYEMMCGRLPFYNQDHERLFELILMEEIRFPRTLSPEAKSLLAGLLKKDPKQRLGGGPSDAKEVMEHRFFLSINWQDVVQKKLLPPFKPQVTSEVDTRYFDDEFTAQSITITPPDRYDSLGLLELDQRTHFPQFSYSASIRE
The target in assay [19] is Cyclin-dependent kinase 2 (Homo sapiens) (UniProt P24941). The assay can be described thus: Inhibition of human CDK2 assessed as residual activity at 10 uM relative to control.
Assay [20] deals with Mitogen-activated protein kinase 8 (Homo sapiens) (UniProt P45983). The assay can be described thus: Inhibition of human JNK1 assessed as residual activity at 1 uM relative to control.
Assay [21] concerns the target Tyrosine-protein kinase Yes (Homo sapiens) (UniProt P07947). The assay can be described thus: Inhibition of human YES1 assessed as residual activity at 1 uM relative to control.

Each structure is given as a SMILES string.

Sequence of Mitogen-activated protein kinase 9 (Homo sapiens) (P45984 whole entry, looked up): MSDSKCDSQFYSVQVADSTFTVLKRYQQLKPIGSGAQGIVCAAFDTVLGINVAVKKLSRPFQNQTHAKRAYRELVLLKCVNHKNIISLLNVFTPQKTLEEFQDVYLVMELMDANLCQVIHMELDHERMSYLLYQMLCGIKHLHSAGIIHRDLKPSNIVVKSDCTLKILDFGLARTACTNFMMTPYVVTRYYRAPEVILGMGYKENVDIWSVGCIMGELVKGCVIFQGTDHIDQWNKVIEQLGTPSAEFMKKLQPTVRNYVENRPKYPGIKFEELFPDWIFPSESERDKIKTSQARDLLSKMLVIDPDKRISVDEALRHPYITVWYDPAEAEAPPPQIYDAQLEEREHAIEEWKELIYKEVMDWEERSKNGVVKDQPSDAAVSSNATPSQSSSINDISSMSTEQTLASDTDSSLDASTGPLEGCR
Sequence of Ribosomal protein S6 kinase beta-1 (Homo sapiens) (P23443 whole entry, looked up): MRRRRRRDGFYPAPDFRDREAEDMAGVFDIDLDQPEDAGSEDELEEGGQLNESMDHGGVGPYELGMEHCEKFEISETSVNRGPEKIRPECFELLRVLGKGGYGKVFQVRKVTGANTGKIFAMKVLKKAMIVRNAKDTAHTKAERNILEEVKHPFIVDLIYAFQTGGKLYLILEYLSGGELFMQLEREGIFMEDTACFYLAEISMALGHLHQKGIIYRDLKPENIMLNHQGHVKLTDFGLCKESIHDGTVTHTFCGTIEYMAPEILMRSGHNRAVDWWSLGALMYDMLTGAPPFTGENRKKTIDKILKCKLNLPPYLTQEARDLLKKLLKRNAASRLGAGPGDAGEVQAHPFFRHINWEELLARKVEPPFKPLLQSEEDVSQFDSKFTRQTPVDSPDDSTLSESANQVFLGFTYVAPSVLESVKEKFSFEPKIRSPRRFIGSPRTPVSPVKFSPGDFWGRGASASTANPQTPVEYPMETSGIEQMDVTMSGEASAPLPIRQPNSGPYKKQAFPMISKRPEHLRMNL
Sequence of Ribosomal protein S6 kinase alpha-5 (Homo sapiens) (O75582 whole entry, looked up): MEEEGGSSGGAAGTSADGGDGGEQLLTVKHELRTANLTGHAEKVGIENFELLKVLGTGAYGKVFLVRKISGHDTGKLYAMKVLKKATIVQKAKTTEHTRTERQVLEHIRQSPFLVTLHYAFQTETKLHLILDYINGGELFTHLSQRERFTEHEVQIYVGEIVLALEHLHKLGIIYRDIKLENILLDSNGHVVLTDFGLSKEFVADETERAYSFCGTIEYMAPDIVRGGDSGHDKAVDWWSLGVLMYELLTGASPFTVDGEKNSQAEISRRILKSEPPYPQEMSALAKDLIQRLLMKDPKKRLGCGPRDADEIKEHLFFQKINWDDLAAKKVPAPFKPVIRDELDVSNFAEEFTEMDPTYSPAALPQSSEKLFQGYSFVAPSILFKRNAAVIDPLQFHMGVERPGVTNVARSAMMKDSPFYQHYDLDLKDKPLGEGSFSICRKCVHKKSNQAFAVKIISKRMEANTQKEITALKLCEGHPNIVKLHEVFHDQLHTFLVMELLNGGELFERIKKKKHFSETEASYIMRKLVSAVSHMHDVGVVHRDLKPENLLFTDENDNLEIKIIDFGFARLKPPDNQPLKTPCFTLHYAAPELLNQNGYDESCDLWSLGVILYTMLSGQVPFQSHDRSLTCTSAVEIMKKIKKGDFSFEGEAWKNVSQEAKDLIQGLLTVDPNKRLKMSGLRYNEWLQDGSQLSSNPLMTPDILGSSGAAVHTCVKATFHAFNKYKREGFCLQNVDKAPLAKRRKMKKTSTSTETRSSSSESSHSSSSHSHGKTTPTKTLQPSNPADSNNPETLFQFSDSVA
Sequence of Tyrosine-protein kinase Yes (Homo sapiens) (P07947 2-543 limits assumed): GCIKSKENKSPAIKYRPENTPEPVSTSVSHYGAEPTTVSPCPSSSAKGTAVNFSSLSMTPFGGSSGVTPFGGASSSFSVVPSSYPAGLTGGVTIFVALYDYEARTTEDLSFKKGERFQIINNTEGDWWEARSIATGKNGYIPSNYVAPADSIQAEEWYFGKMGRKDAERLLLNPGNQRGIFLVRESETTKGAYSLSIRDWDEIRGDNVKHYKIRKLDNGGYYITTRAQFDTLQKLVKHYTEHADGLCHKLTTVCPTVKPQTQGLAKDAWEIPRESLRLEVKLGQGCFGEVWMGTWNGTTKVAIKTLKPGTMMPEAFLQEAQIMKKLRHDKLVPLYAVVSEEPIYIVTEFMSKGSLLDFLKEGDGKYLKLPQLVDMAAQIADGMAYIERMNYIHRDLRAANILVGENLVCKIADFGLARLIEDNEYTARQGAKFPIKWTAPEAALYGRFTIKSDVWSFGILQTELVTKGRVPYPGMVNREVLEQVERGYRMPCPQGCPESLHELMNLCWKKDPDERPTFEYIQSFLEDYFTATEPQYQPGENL
Sequence of Casein kinase I isoform delta (Rattus norvegicus) (Q06486 whole entry, looked up, canonical isoform): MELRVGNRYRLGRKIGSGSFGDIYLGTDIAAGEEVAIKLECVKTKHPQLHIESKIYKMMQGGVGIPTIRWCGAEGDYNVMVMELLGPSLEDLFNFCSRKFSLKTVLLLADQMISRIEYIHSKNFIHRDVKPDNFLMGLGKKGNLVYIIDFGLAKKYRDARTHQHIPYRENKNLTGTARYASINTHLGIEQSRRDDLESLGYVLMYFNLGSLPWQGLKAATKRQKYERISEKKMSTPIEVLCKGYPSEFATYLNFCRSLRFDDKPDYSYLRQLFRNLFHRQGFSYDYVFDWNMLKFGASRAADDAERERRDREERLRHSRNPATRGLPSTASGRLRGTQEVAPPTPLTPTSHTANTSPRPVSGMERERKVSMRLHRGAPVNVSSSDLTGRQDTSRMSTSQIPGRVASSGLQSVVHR
Sequence of Serine/threonine-protein kinase PAK 4 (Homo sapiens) (O96013 whole entry, looked up): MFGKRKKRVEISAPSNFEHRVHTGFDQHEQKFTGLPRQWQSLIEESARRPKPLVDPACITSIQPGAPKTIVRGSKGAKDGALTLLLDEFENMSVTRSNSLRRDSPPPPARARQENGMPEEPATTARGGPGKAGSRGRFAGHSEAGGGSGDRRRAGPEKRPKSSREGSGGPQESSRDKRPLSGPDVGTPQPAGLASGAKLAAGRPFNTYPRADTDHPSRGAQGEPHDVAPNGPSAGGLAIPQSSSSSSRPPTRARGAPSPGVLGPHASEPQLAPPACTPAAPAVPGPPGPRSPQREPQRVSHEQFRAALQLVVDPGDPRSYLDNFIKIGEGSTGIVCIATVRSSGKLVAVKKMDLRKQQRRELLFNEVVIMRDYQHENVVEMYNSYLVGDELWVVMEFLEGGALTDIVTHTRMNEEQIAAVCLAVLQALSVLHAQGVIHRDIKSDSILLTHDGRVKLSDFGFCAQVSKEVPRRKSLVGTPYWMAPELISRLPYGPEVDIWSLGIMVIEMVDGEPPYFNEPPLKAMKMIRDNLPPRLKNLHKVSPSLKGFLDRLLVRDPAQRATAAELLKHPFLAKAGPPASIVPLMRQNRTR

For the molecule `CC(=O)Nc1cccc(-c2cnc3[nH]nc(C)c3c2)c1`, the Activity in assay [1] turned out to be 93.8%; in assay [2], 10%; in assay [3], 111%; in [4], 17.9%; in assay [5], 51.1%; in assay [6], 28.9%. In addition, the Activity in assay [7] came to 97%; in assay [8], 68.5%; in the assay filed under Oryctolagus cuniculus, 75.7%; in assay [9], 89.5%; in [10] it was 63.5%; in [11], 104%. The Activity in assay [12] came to 70.9%; in assay [13] it was 71.2%; in [14], 52%; in assay [15], 90.6%; in [16], 80.5%; in [17] it was 93.2%. The Activity was 94% in [18], 40.3% in [19], 93.3% in assay [20] and 100% in [21].
Regarding `CCCC(=O)Nc1n[nH]c2ncc(-c3cccnc3)cc12`, the Activity in assay [1] was determined as 113%; in assay [2], 84%; in assay [3], 93%; in assay [4] it was 62%; in [5] it was 91%; in [6], 96%. Further, the Activity was 70% in assay [7]; 96% in assay [8]; 90% in the assay filed under Oryctolagus cuniculus; 94% in [9]; 78% in assay [10]; 81% in assay [11]. In addition, the Activity in assay [12] turned out to be 88%; in [13] it was 89%; in assay [14], 89%; in [15] it was 85%; in assay [16] it was 68%; in assay [17], 85%. The Activity in assay [18] is 91%; in assay [19], 5%; in assay [20], 97%; in assay [21], 83%.
Regarding `CC(=O)Nc1nccc(-c2c(-c3ccccc3)noc2C)n1`, the Activity in assay [1] is 85.1%; in assay [2], 7.2%; in assay [3], 103%; in assay [4] it was 79.2%; in [5] it was 115%; in assay [6] it was 78.8%. Besides, the Activity in [7] is 44.4%; in assay [8] it was 89.5%; in the assay filed under Oryctolagus cuniculus it was 95.1%; in assay [9], 112%; in assay [10], 67.1%; in assay [11], 99.9%. For the same molecule, the Activity in [12] was determined as 23.4%; in [13], 115%; in assay [14], 82.4%; in assay [15], 108%; in [16] it was 107%; in [17] it was 103%. In addition, the Activity was 84% in assay [18], 104% in [19], 67% in assay [20] and 119% in [21].
